Legend:
[1] = target: T1, MMP9 (Homo sapiens, UniProt P14780); assay: Activation of proMMP9 by human fetal lung fibroblast (HFL-1) cultures (Western blot); assay type: cell-based; settings: 3.3 μM, HFL-1, mAb-L51/82
T1 construct: host or cells: HFL-1 human fetal lung fibroblasts
Description: Activation of proMMP9 by human fetal lung fibroblast cultures Compound-α was assessed additionally for ability to block the maturation of proMMP9 to active MMP9 in cultures of human fetal lung fibroblasts (HFL-1, American Type Culture Collection #CCL-153). Unlike rat synoviocytes, HFL-1 cells were unable to process proMMP9 to the active form without addition of neutrophil elastase. […] Rather, the function of elastase in this assay may be to inactivate tissue inhibitors of matrix metalloproteinases (TIMPs) that repress endogenous pathways of MMP9 activation (Am J Respir Crit. Care Med; 1999; 159:1138-46).
HLF-1 were maintained in monolayer culture in DMEM with 10% FCS and were used between passage numbers 5-15. HLF-1 were embedded in collagen gels as described for rat SCW synoviocytes (vida supra). Half mL gels containing 0.4 million cells were dislodged into wells of 12 well Costar plates containing 1 mL/well of DMEM adjusted to contain 0.05% BSA and 100 ng/mL human TNFα (R&D Systems Cat #210-TA/CF). After overnight culture (37° C. and 5% CO2) wells were adjusted to contain an additional 0.5 mL of DMEM containing 0.05% BSA and with or without 13.2 μM Compound-α (final concentration was 3.3 μM Compound-α). Next, cultures were adjusted to contain 30 nM human elastase (Innovative Research). The plates were cultured an additional 72 hrs, at which time MMP9 secreted into the conditioned media was bound to gelatin-sepharose and evaluated by Western blot analysis as described for the rat synoviocyte cultures (vida supra). mAb-51/82 detected three forms of MMP9 in HFL-1 cultures.
These included a form of approximately 100 kD with mobility similar to recombinant rat proMMP9, an approximately 80 kD form with mobility similar to rat active MMP9, and an approximately 86 kD intermediate form. In the absence of Compound-α, most of the MMP9 was present as the 80 kD form. In the presence of Compound-α, the 80 kD form was a minor fraction of the total signal while nearly half of the signal were contributed each by the 100 kD and 86 kD forms. […]
A second experiment was performed to determine if the 80 kD form was mature active MMP9 and to determine the potency of Compound-α as an inhibitor of MMP9 maturation in this assay. HFL-1 cells embedded in collagen gels were cultured as described above in the presence of TNFα overnight and the cultures were then adjusted to contain 30 nM elastase and graded concentrations of Compound-α for an additional 72 hrs at which time MMP9 secreted into the conditioned media was bound to gelatin-sepharose and evaluated by Western blot analysis for active MMP9 using pAb-1246 raised against the N-terminal neoepitope of active MMP9 (Table 5). In the absence of Compound-α, pAb-1246 readily detected MMP9 with an electrophoretic mobility of approximately 80 kD. […]

[2] = target: T2, MMP9 mediated gelatinase activity (Rattus norvegicus, UniProt P50282); assay: In situ zymography of gelatinase activity in livers of SCW-induced rats; assay type: in vivo; settings: for Intensity, Rat 1 / Intensity, Rat 2 / Intensity, Rat 3 / Intensity, Mean: liver
T2 construct: from tissue; host or cells: liver sections of female Lewis rats
Text: In situ zymography provides an alternative approach to assess active MMP9 in tissues (Frederiks). Tissue sections are overlain with fluorescene-conjugated gelatin wherein the conjugation is sufficiently dense to cause the fluorescene to be dye-quenched (DQ). Proteolytic degradation of the DQ-gelatin releases the fluorescene from the quenching effect giving rise to bright green fluorescence at the site of degradation. Because in situ zymography requires the use of frozen sections, calcified tissues are problematic. However, an additional feature of the SCW arthritis model is the development of hepatic granulomatous disease (J Immunol; 1986; 137:2199-2209), and MMP9 reportedly plays a role in macrophage recruitment in the granulomas response to mycobacteria (Infect Immun; 2006; 74:6135-6144). Consequently, granulomatous livers from SCW-treated rats were assessed for active MMP9 by in situ zymography.
As described above, Female Lewis (LEW/N) rats, 5-6 weeks of age (80-100 g) were injected (i.p.) with saline or SCW PG-PS. On day 28, when the granulomatous response was well established, animals were sacrificed and livers were frozen in OCT cryo-sectioning medium and […] sections were cut on a Cryome HM 500 M cryotome and mounted on glass microscope slides. Sections were air dried briefly. MMP9 was confirmed as the source of the gelatinase activity in the liver by treating liver sections with monoclonal antibodies directed against the active site of the two major gelatinases MMP9 and MMP2. Liver sections overlain with 50 μL of 100 μg/mL neutralizing mouse monoclonal antibodies directed against MMP9 (Calbiochem, clone 6-6B), or MMP2 (Millipore, clone CA-4001), or with PBS for 1 hr at room temperature. Tissues were rinsed once with PBS, blotted, and briefly air dried and then overlain with DQ-gelatin (Invitrogen) dissolved to 1 mg/mL in deionized water and then diluted 1:10 in 1% wt/vol low gelling point agarose type VII (Sigma) in PBS. The sections were covered with coverslips, incubated in the dark at room temperature for 20 min, and imaged on an Olympus IX80 inverted microscope fitted with fluorescence optics, using SlideBook™ imaging software (Intelligent Imaging Innovations, Inc., Philadelphia, Pa.; version 5.0). Fluorescence intensity was determined (Table 8). When compared to a saline-treated rat, gelatinase activity was abundantly expressed in granulomatous liver sections obtained from a rat with SCW arthritis.
Next, liver in situ zymography was used to assess the relative presence of active MMP9 in rats dosed with vehicle vs. Compound-α. Female Lewis (LEW/N) rats, 5-6 weeks of age (80-100 g) were injected (i.p.) with saline or SCW PG-PS. Commencing on day 25, randomized groups of rats (n=3 rats/group) received vehicle or 20 or 50 mg/kg Compound-α BID by oral gavage. Vehicle consisted of an aqueous mixture containing 2% (v:v) N-methylpyrrolidone, 5% (v:v) glycerine, and 20% (w:v) captisol. Treatment continued daily through the morning of day 28. Four hrs after the AM dose on day 28, rats were sacrificed and livers assessed for active MMP9 by in situ zymography (Table 9). Gelatinase activity was increased markedly in SCW-induced rats, but activity was reduced by approximately 80% in animals treated with 50 mg/kg Compound-α.

T1 sequence (P14780 94-707): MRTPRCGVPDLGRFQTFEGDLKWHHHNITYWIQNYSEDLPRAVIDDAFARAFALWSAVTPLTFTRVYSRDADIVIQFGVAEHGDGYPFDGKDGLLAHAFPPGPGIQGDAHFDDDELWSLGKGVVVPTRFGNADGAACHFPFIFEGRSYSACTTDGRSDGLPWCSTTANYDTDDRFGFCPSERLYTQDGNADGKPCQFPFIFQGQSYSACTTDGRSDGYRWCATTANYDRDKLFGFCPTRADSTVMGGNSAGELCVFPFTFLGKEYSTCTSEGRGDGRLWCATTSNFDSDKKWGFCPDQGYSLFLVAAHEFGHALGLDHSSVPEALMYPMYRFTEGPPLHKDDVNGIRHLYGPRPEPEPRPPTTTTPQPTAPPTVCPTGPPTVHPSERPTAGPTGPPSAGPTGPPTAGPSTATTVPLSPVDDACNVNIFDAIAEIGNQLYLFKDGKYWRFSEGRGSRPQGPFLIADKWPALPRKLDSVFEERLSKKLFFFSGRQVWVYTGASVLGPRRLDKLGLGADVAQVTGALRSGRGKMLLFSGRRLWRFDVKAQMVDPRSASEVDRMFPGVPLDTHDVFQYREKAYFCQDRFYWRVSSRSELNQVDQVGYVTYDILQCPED
T2 sequence (P50282 108-708): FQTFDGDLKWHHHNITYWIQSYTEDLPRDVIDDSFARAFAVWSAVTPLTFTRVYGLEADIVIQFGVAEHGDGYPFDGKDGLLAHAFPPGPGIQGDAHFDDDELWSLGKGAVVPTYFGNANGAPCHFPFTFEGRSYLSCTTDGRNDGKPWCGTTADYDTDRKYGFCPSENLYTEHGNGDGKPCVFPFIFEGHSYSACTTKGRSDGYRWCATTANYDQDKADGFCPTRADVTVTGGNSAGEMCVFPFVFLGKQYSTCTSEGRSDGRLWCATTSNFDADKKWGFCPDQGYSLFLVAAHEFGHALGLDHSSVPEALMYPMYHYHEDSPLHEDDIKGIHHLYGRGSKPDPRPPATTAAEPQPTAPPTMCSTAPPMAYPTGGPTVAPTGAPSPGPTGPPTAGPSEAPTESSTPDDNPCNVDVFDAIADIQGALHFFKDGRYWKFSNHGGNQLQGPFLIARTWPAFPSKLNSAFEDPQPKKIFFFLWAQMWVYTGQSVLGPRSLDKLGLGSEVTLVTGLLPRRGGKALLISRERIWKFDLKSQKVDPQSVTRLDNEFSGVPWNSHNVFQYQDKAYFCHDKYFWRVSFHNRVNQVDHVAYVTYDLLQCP

Cc1nc(C)c(-c2csc(Nc3cc(S(N)(=O)=O)ccc3OC(C)C)n2)s1 [Compound-α, 3-(2′,4′-Dimethyl-[4,5′]bithiazolyl-2-ylamino)-4-isopropoxy-benzenesulfonamide•HBr]
Percent of total signal, 80 kD [1]: 7% | Percent of total signal, 86 kD [1]: 47% | Percent of total signal, 100 kD [1]: 46% | Signal, Total [1]: 91346 INT * mm^2 | Reduction of liver gelatinase activity ([2]; 50 mg/kg BID Day 25-28): approximately 80% | Intensity, Rat 1 ([2]; 20 mg/kg BID Day 25-28): 43.0 RLU × 10^6 | Intensity, Rat 2 ([2]; 20 mg/kg BID Day 25-28): 69.0 RLU × 10^6 | Intensity, Rat 3 ([2]; 20 mg/kg BID Day 25-28): 53.7 RLU × 10^6 | Intensity, Mean ([2]; 20 mg/kg BID Day 25-28, n=3): 55.2 RLU × 10^6 | Intensity, Rat 1 ([2]; 50 mg/kg BID Day 25-28): 3.2 RLU × 10^6 | Intensity, Rat 2 ([2]; 50 mg/kg BID Day 25-28): 25.6 RLU × 10^6 | Intensity, Rat 3 ([2]; 50 mg/kg BID Day 25-28): 4.5 RLU × 10^6 | Intensity, Mean ([2]; 50 mg/kg BID Day 25-28, n=3): 11.1 RLU × 10^6

From patent US20120129872A1, “FUSED HETEROARYL INHIBITORS OF PRO-MATRIX METALLOPROTEINASE ACTIVATION” (priority 2010, published 2012)
